In US20240382517A1, “Topical Pharmaceutical Skin Composition for the Delivery of Nitric Oxide in Combination with Other Topical Dermatologic Agents” (NOxy Health Products, Inc., priority 2023, published 2024):
“Also recorded” adds a separate entry of the source. Counter-ions that a name gives are not always drawn.

Experiments:
Assay type in all cases: physicochemical
[1] = NOx production of mixed foams, Thermoscientific 42iQLS Gas Analyzer; details: 0.4 M, 0.5 M, 0.6 M ascorbic acid as first (A) solution + second (B) solution without BAC; compared to citric acid; FIG. 4
Procedure: Methods. Solutions A and B were agitated by vigorous shaking until they produced foams. Then, two pumps of foam A (from Solution A) and foam B (from Solution B) were added to a weigh boat, and then the resulting mixture was thoroughly mixed with a gloved finger for five seconds. The resulting mixture was then placed in the sample chamber for measurement using a Thermoscientific 42iQLS Gas Analyzer. The measured concentration of the NOx produced was recorded every ten seconds. Using the Ideal Gas Law, the mass in mols of NOx was calculated.
The first (A) solution was prepared as described in Example 1, except BAC was not included. The second (B) solution was prepared by dissolving salicylic acid in a stoichiometric amount of sodium hydroxide dissolved in water. Once all of the salicylic acid was dissolved, sodium nitrite and coco betaine were added. The first (A) and second (B) solutions were then mixed. A foam was produced upon the mixing/priming of the first (A) solution and the second (B) solution.
Three solutions of ascorbic acid (0.4 M, 0.5 M, and 0.6 M) were prepared and used as first (A) solutions. The second (B) solution was as provided in Example 1 except that BAC was not included. The solutions were poured into small foam dispensers. One squirt of foam from each of the first (A) solution and the second (B) solution was combined in a weight boat and NOx formation was measured.

[2] = Mixing of lidocaine HCl solution into the first (A) solution in a stable manner; details: first (A) solution not including BAC; monitoring time three minutes
Excerpt: The monitoring time was three minutes.

[3] = NOx release from mixed liquids, Thermoscientific 42iQLS Gas Analyzer
Excerpt: For the NO release testing, one mL of each solution was dispensed into a weight boat using the pipetter. A new pipette tip was used for each aliquot. For NO release measurements, the weigh boat was then placed into the sampling bin of a Thermoscientific 42iQLS Gas Analyzer, and the lid placed on top. The analyzer began measuring NOx released from the mixed liquid in the weigh boat as indicated by the rise of both the NO and NO2 measurements on the screen of the analyzer, a 10-minute timer was started.
Once the datalogger had collected 70 time points (700 seconds) of data: • 1. the data logging program was halted • 2. The weigh boat was removed from the chamber and disposed of in a separate room • 3. A fan was used to blow fresh air into the testing chamber for 10 seconds • 4. The next test was conducted when the analyzer measured less than 5 ppm total NOx […]
About 1 mL of Manuka honey was mixed with 1 mL of standard second (B) solution (not including BAC). […]

[4] = pH of lidocaine HCl solution, calibrated lab pH meter; details: 4 percent solution in water
Procedure: A 4% w/w solution of lidocaine in deionized water was prepared. The pH of the solution was measured using a conventional calibrated lab pH meter.

O=C1O[C@H]([C@@H](O)CO)C(O)=C1O [ascorbic acid]
production of NOx [1]: lower levels of production of NOx than citric acid

CCN(CC)CC(=O)Nc1c(C)cccc1C [lidocaine HCl]
reaction on mixing with the standard first (A) solution [2]: No reaction was observed | NOx release ([3]; 4 percent lidocaine HCl solution mixed with second (B) solution (no BAC) only, FIG. 6): NO was produced; also recorded: Only a small amount of NOx was released | NOx release ([3]; 4 percent lidocaine HCl solution mixed with standard first (A) and second (B) solutions (no BAC), FIG. 7): NO was also produced; also recorded: a large amount of NOx was released | pH [4]: 4.16
